From patent US20250032388A1, “PERSONAL CARE COMPOSITIONS FOR SENSITIVE SKIN AND METHODS OF USE” (Galderma Holding SA, priority 2022, published 2025)

System: NADPH oxidase
Experiment: NADPH-oxidase activity in pollution-exposed fibroblasts (Example 6)
Type: cell-based, human
Experimental: Method: Cells are incubated for 30 minutes with the test elements (either pollutant or Composition A). NADPH oxidase activity is determined immediately using chemioluminescence. Conditions: Untreated and unexposed to pollution, Untreated and exposed to pollution and Treated with personal care composition and exposed to pollution. As a comparison to the personal care composition, niacinamide was tested at low concentration (“niacinamide (low)”) and high concentration (“niacinamide (high)”) in DMSO. (The high niacinamide concentration was 6.67 times the low niacinamide concentration.) Composition B was diluted until its niacinamide concentration was the same as the niacinamide (low) concentration. The cells used in the study were human primary fibroblasts originating from a healthy donor. As in Example 5, the pollutant was urban standardized particles composed with metals, polyaromatic hydrocarbons (PAHs), nitro-PAHs, PCBs, chlorinated pesticide, etc., of micrometric diameter. NADPH-oxidase activity and mitochondrial associated membranes (MAMs) were experimentally determined and quantified in the same manner as in Example 5.

NADPH oxidase activity relative to NE-NTC (niacinamide (high) concentration, 6.67 times the low): level below that observed in NE-NTC
Substance: niacinamide
NADPH oxidase activity relative to NE-NTC (niacinamide (low) concentration, Composition B diluted to the same niacinamide concentration): level similar to that observed in the NE-NTC
